# Laboratory results taken from paper PMC9296036, “A peptide interfering with the dimerization of oncogenic KITENIN protein and its stability suppresses colorectal tumour progression” (Clinical and Translational Medicine, 2022).
# Ends that are not written are not given here.
# Test system: CT-26/KITENIN-V5 tumours
# Assay: Syngeneic subcutaneous tumour model, CT-26/KITENIN-V5 cells in BALB/c mice
# Type: in vivo, mouse
# Conditions: CT-26/KITENIN-V5, KDIP 1 and 5 mg/kg intravenously every other day for 2 weeks, dose dependent
# Experimental: The CT‐26 cell/syngeneic mouse model was used to investigate the in vivo effects of KDIP on colorectal tumourigenesis, as it is reported that a syngeneic mouse tumour model is good for testing the anticancer effects of candidate substances.[25], [26] Male Balb/c mice (5‐week old) were purchased from DaMul Science, Korea and acclimated for 1 week prior to subcutaneous injection of syngeneic CT‐26/EV (3 × 10^6) or CT‐26/KITENIN cells (1 × 10^6) into the dorsum. Tumour volume was calculated using the following equation: V = 1/2 × a × b […], where a and b are the longest and shortest diameters of the tumour (in millimetres), respectively. Tumour volume was measured every other day for 14 days to verify the effects of KDIP. […]
# Effect of KAI1 C‐terminal interacting tetraspanin (KITENIN) dimerization‐interfering peptide (KDIP) on tumour growth and metastasis in in vivo mouse model of colorectal cancer (CRC). […] For the evaluation of metastasis, total fluorescence emitted from liver nodules expressing iRFP was measured and counted (left panel) or metastatic tumour growth was counted as nodules that migrated to the surface of the liver, and a metastatic score was obtained by multiplying it with size (middle panel). Metastatic score or total fluorescence is represented as mean ± SEM. […]
sequence,measurement,value
YARVRRRGPRRWRLVSDEAV [KDIP],tumour volume (in words),significantly reduced
